Experiments:
[1] = tested on: RSV (RSV A2 ECACC, 0709161v); test: RSV plaque reduction assay; type: cell-based, respiratory syncytial virus; details: human respiratory syncytial virus, HepG2, read-out: RSV A2 Plaque EC50, RSV A2 in Hep-G2 cells; mean of at least two experiments unless noted (n = 1)
Outline: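 Eight-point compound dilutions were premixed with RSV A2 (100 PFU/well) and applied to confluent Hep-G2 cells for 2 h, followed by a 2-day incubation at 37° C. under compound-containing 0.8% CMC overlay. EC50 comes from immunostained plaque counts relative to untreated virus wells, averaged over ≥2 runs.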

cell toxicity CC50 = type: cell-based; details: human; Hep-G2 cells; mean of at least two experiments; read-out: Cell Cytotoxicity CC50

Row | Compound | EC50 [1] [nM] | CC50 (cell toxicity CC50) [nM]
1 | CCc1ncc(-c2nn3c(c2C(=O)N[C@H]2N=C(c4ccccc4)c4ccccc4NC2=O)O[C@H](C)CC3)cn1 [Example 59, (5R)-2-(2-Ethylpyrimidin-5-yl)-5-methyl-N-[(3S)-2-oxo-5-phenyl-1,3-dihydro-1,4-benzodiazepin-3-yl]-6,7-dihydro-5H-pyrazolo[5,1-b][1,3]oxazine-3-carboxamide] | 309 | > 25000
2 | CCc1ncc(-c2nn3c(c2C(=O)N[C@H]2N=C(c4ccccc4)c4cccc(F)c4NC2=O)O[C@H](C)CC3)cn1 [Example 60, (5R)-2-(2-Ethylpyrimidin-5-yl)-N-[(3S)-9-fluoro-2-oxo-5-phenyl-1,3-dihydro-1,4-benzodiazepin-3-yl]-5-methyl-6,7-dihydro-5H-pyrazolo[5,1-b][1,3]oxazine-3-carboxamide] | 167 | > 25000
3 | C[C@@H]1CCn2nc(-c3ccoc3)c(C(=O)N[C@H]3N=C(c4ccccc4)c4cccc(F)c4NC3=O)c2O1 [Example 61, (5R)-N-[(3S)-9-fluoro-2-oxo-5-phenyl-1,3-dihydro-1,4-benzodiazepin-3-yl]-2-(3-furyl)-5-methyl-6,7-dihydro-5H-pyrazolo[5,1-b][1,3]oxazine-3-carboxamide] | 161 | > 25000
4 | C[C@@H]1CCn2nc(-c3ccoc3)c(C(=O)N[C@H]3N=C(c4ccccc4)c4ccccc4NC3=O)c2O1 [Example 62, (5R)-2-(3-Furyl)-5-methyl-N-[(3S)-2-oxo-5-phenyl-1,3-dihydro-1,4-benzodiazepin-3-yl]-6,7-dihydro-5H-pyrazolo[5,1-b][1,3]oxazine-3-carboxamide] | 192 | > 25000
5 | C[C@@H]1CCn2nc(-c3ccsc3)c(C(=O)N[C@H]3N=C(c4ccccc4)c4cccc(F)c4NC3=O)c2O1 [Example 63, (5R)-N-[(3S)-9-fluoro-2-oxo-5-phenyl-1,3-dihydro-1,4-benzodiazepin-3-yl]-5-methyl-2-(3-thienyl)-6,7-dihydro-5H-pyrazolo[5,1-b][1,3]oxazine-3-carboxamide] | 94 | > 25000
6 | C[C@@H]1CCn2nc(-c3ccsc3)c(C(=O)N[C@H]3N=C(c4ccccc4)c4ccccc4NC3=O)c2O1 [Example 64, (5R)-5-Methyl-N-[(3S)-2-oxo-5-phenyl-1,3-dihydro-1,4-benzodiazepin-3-yl]-2-(3-thienyl)-6,7-dihydro-5H-pyrazolo[5,1-b][1,3]oxazine-3-carboxamide] | 133 | > 25000
7 | CCc1ccc(-c2nn3c(c2C(=O)N[C@H]2N=C(c4ccccc4)c4ccccc4NC2=O)O[C@H](C)CC3)c(C)n1 [Example 65, (5R)-2-(6-Ethyl-2-methyl-3-pyridyl)-5-methyl-N-[(3S)-2-oxo-5-phenyl-1,3-dihydro-1,4-benzodiazepin-3-yl]-6,7-dihydro-5H-pyrazolo[5,1-b][1,3]oxazine-3-carboxamide] | 84 | > 25000
8 | CCc1ccc(-c2nn3c(c2C(=O)N[C@H]2N=C(c4ccccc4)c4cccc(F)c4NC2=O)O[C@H](C)CC3)c(C)n1 [Example 66, (5R)-2-(6-Ethyl-2-methyl-3-pyridyl)-N-[(3S)-9-fluoro-2-oxo-5-phenyl-1,3-dihydro-1,4-benzodiazepin-3-yl]-5-methyl-6,7-dihydro-5H-pyrazolo[5,1-b][1,3]oxazine-3-carboxamide] | 60 | > 25000
9 | CC(C)Nc1ccc(-c2nn3c(c2C(=O)N[C@H]2N=C(c4ccccc4)c4cccc(F)c4NC2=O)O[C@H](C)CC3)cn1 [Example 67, (5R)-N-[(3S)-9-fluoro-2-oxo-5-phenyl-1,3-dihydro-1,4-benzodiazepin-3-yl]-2-[6-(isopropylamino)-3-pyridyl]-5-methyl-6,7-dihydro-5H-pyrazolo[4,1-b][1,3]oxazine-3-carboxamide] | 19 | > 25000
10 | CCn1ccc(-c2nn3c(c2C(=O)N[C@H]2N=C(c4ccccc4)c4cccc(F)c4NC2=O)O[C@H](C)CC3)n1 [Example 68, (5R)-2-(1-Ethylpyrazol-3-yl)-N-[(3S)-9-fluoro-2-oxo-5-phenyl-1,3-dihydro-1,4-benzodiazepin-3-yl]-5-methyl-6,7-dihydro-5H-pyrazolo[5,1-b][1,3]oxazine-3-carboxamide] | 307 | > 25000
11 | CC(C)Nc1ccc(-c2nn3c(c2C(=O)N[C@H]2N=C(c4ccccc4)c4cccc(F)c4NC2=O)O[C@@H](C)CC3)cn1 [Example 69] | 34 | > 25000
12 | CC(C)c1ccc(-c2nn3c(c2C(=O)N[C@H]2N=C(c4ccccc4)c4cccc(F)c4NC2=O)O[C@H](C)CC3)cn1 [Example 70, (5R)-5-Methyl-2-(6-propan-2-ylpyridin-3-yl)-N-[(3S)-9-fluoro-2-oxo-5-phenyl-1,3-dihydro-1,4-benzodiazepin-3-yl]-6,7-dihydro-5H-pyrazolo[5,1-b][1,3]oxazine-3-carboxamide] | 50 | > 25000
13 | [2H]C([2H])([2H])Nc1ccc(-c2nn3c(c2C(=O)N[C@H]2N=C(c4ccccc4)c4cccc(F)c4NC2=O)O[C@H](C)CC3)cn1 [Example 71, (5R)-5-Methyl-N-[(3S)-9-fluoro-2-oxo-5-phenyl-1,3-dihydro-1,4-benzodiazepin-3-yl]-2-[6-(trideuteriomethylamino)pyridin-3-yl]-6,7-dihydro-5H-pyrazolo[5,1-b][1,3]oxazine-3-carboxamide] | 91 | > 25000
14 | Cc1ccc(-c2nn3c(c2C(=O)N[C@H]2N=C(c4ccccc4)c4cccc(F)c4NC2=O)O[C@H](C)CC3)c(F)n1 [Example 73, (5R)-2-(2-Fluoro-6-methylpyridin-3-yl)-5-methyl-N-[(3S)-9-fluoro-2-oxo-5-phenyl-1,3-dihydro-1,4-benzodiazepin-3-yl]-6,7-dihydro-5H-pyrazolo[5,1-b][1,3]oxazine-3-carboxamide] | 91 | > 25000
15 | CCc1ccc(-c2nn3c(c2C(=O)N[C@H]2N=C(c4ccccc4)c4cccc(F)c4NC2=O)O[C@H](C)CC3)cn1 [Example 74, (5R)-2-(6-Ethylpyridin-3-yl)-5-methyl-N-[(3S)-9-fluoro-2-oxo-5-phenyl-1,3-dihydro-1,4-benzodiazepin-3-yl]-6,7-dihydro-5H-pyrazolo[5,1-b][1,3]oxazine-3-carboxamide] | 39 | > 25000
16 | CCc1ccc(-c2nn3c(c2C(=O)N[C@H]2N=C(c4ccccc4)c4cccc(F)c4NC2=O)O[C@H](C)CC3)c(F)c1 [Example 75, (5R)-2-(4-Ethyl-2-fluorophenyl)-5-methyl-N-[(3S)-9-fluoro-2-oxo-5-phenyl-1,3-dihydro-1,4-benzodiazepin-3-yl]-6,7-dihydro-5H-pyrazolo[5,1-b][1,3]oxazine-3-carboxamide] | 158 | > 25000
17 | C[C@H]1CCn2nc(-c3ccncc3F)c(C(=O)N[C@H]3N=C(c4ccccc4)c4cccc(F)c4NC3=O)c2O1 [Example 76, (5S)-N-[(3S)-9-fluoro-2-oxo-5-phenyl-1,3-dihydro-1,4-benzodiazepin-3-yl]-2-(3-fluoropyridin-4-yl)-5-methyl-6,7-dihydro-5H-pyrazolo[5,1-b][1,3]oxazine-3-carboxamide] | 93 | > 25000
18 | Cc1ccc(-c2nn3c(c2C(=O)N[C@H]2N=C(c4ccccc4)c4cccc(F)c4NC2=O)O[C@H](C)CC3)cn1 [Example 77, (5R)-5-Methyl-2-(6-methylpyridin-3-yl)-N-[(3S)-9-fluoro-2-oxo-5-phenyl-1,3-dihydro-1,4-benzodiazepin-3-yl]-6,7-dihydro-5H-pyrazolo[5,1-b][1,3]oxazine-3-carboxamide] | 159 | > 25000
19 | CC(O)Cc1ccc(-c2nn3c(c2C(=O)N[C@H]2N=C(c4ccccc4)c4cccc(F)c4NC2=O)O[C@H](C)CC3)cn1 (stereo partly drawn) [Example 78, (5R)-2-[6-(2-Hydroxypropyl)pyridin-3-yl]-5-methyl-N-[(3S)-9-fluoro-2-oxo-5-phenyl-1,3-dihydro-1,4-benzodiazepin-3-yl]-6,7-dihydro-5H-pyrazolo[5,1-b][1,3]oxazine-3-carboxamide] | 217 | > 25000
20 | Cc1cc(-c2nn3c(c2C(=O)N[C@H]2N=C(c4ccccc4)c4cccc(F)c4NC2=O)O[C@H](C)CC3)c(F)cn1 [Example 79, (5R)-2-(5-Fluoro-2-methylpyridin-4-yl)-N-[(3S)-9-fluoro-2-oxo-5-phenyl-1,3-dihydro-1,4-benzodiazepin-3-yl]-5-methyl-6,7-dihydro-5H-pyrazolo[5,1-b][1,3]oxazine-3-carboxamide] | 115 | > 25000
21 | O=C(N[C@H]1N=C(c2ccccc2)c2cccc(F)c2NC1=O)c1c(-c2ccncc2F)nn2c1OCCC2 [Example 80, N-[(3S)-9-fluoro-2-oxo-5-phenyl-1,3-dihydro-1,4-benzodiazepin-3-yl]-2-(3-fluoropyridin-4-yl)-6,7-dihydro-5H-pyrazolo[5,1-b][1,3]oxazine-3-carboxamide] | 64 | > 25000
22 | C[C@@H]1CCn2nc(-c3ccccc3)c(C(=O)N[C@H]3N=C(c4ccccc4)c4cccc(F)c4NC3=O)c2O1 [Example 81, (5R)-5-Methyl-2-phenyl-N-[(3S)-9-fluoro-2-oxo-5-phenyl-1,3-dihydro-1,4-benzodiazepin-3-yl]-6,7-dihydro-5H-pyrazolo[5,1-b][1,3]oxazine-3-carboxamide] | 84 | > 25000
23 | C[C@@H]1CCn2nc(-c3ccc(F)cc3F)c(C(=O)N[C@H]3N=C(c4ccccc4)c4cccc(F)c4NC3=O)c2O1 [Example 82, (5R)-2-(2,4-Difluorophenyl)-5-methyl-N-[(3S)-9-fluoro-2-oxo-5-phenyl-1,3-dihydro-1,4-benzodiazepin-3-yl]-6,7-dihydro-5H-pyrazolo[5,1-b][1,3]oxazine-3-carboxamide] | 31 | > 25000

Reference: patent US12678446B2 (PFIZER INC., priority 2020, dated 2026)
